Source: US5840867A, “Aptamer analogs specific for biomolecules” (Gilead Sciences, Inc., priority 1994, dated 1998)

Experiments:
thrombin [1] = experiment: Clotting time for thrombin-catalyzed conversion of fibrinogen to fibrin; format: biochemical; conditions: 7-mer at 20 μM; thrombin 10 nM; thrombin alone 24 sec
Procedure: Clotting time for the thrombin-catalyzed conversion of fibrinogen (2.0 mg/ml in selection buffer) to fibrin at 37° C. was measured using a precision coagulation timer apparatus (Becton-Dickinson, Cat. Nos. 64015, 64019, 64020). Thrombin (10 nM) incubated with fibrinogen alone clotted in 40 sec, thrombin incubated with fibrinogen and P1 nuclease (Boehringer-Mannheim, Indianapolis, Ind.) clotted in 39 sec, thrombin incubated with fibrinogen and aptamer clone #5 (200 nM) clotted in 115 sec, and thrombin incubated with fibrinogen, clone #5 (200 nM) and P1 nuclease clotted in 40 sec. All incubations were carried out at 37° C. using reagents prewarmed to 37° C. Aptamer DNA or, when present, P1 nuclease, was added to the fibrinogen solution prior to addition of thrombin.
Inhibition of thrombin activity was studied using a consensus-related sequence 7-mer, 5' GGTTGGG 3' (SEQ ID NO:15), or a control 7-mer with the same base composition but different sequence (5' GGGGGTT 3' ) (SEQ ID NO:16). Clotting times were measured using the timer apparatus as above. The thrombin clotting time in this experiment was 24 sec using thrombin alone (10 nM), 26 sec with thrombin and the control sequence at 20 μM and 38 sec with thrombin plus the consensus sequence at 20 μM, indicating specificity for thrombin inhibition at the level of the 7-mer.

human thrombin = experiment: Thrombin clotting-time assay on rat plasma after injection; format: in vivo; conditions: rats, injected through catheter
Procedure: (§1) A 15-mer single-stranded deoxynucleotide, 5' GGTTGGTGTGGTTGG 3' (SEQ ID NO:19), identified as a consensus sequence from 30 thrombin aptamer clones as described in Example 4 above was used. Young adult rats of mixed gender and strain were used. The animals were anesthetized and a diester of the 15-mer was injected through a catheter in 200 μl volumes (in 20 mM phosphate buffer, pH 7.4, 0.15M NaCl) at two concentrations, so that the final concentration of 15-mer in the blood was about 0.5 and 5.0 μM respectively, although the exact concentration depends on the volume of distribution which is unknown for this oligonucleotide. These values are 10 to 100 times greater than the human in vitro Kd value. No heparin was used for catheterization.
(§2) At 0, 5, 20 and 60 minutes, blood was withdrawn from the animals (approx. 500 μl aliquots) and transferred into tubes containing 0.1 volume citrate buffer and centrifuged. Rat plasma was removed and tested in a thrombin clotting-time assay. Six animals were used at each concentration,and three animals were injected with the control carrier solution containing no 15-mer.

rat blood coagulation = experiment: APTT test after injection in rats; format: in vivo; conditions: 5 minute time point
Procedure: (§3) Thus, the 15-mer in blood withdrawn from rats 5 minutes post-injection was able to inhibit exogenously added human thrombin. […] The half-life of the 15-mer in rats appears to be about 5 minutes or less.

Half-life in rats = format: in vivo, rat; conditions: injected through catheter
Procedure: as §1, §2, §3

thrombin [2] = experiment: Steady-state inhibition kinetics by clotting time assay (Ki); format: biochemical; conditions: constant thrombin, varying fibrinogen concentration
Procedure: The inhibition constants (Ki s) and mode of inhibition of the aptamer analogs were determined through steady-state inhibition kinetics using a clotting time assay with constant thrombin concentration and varying the fibrinogen concentration in the presence of aptamer, control DNA, or no DNA. […] The data is consistent with a non-competitive mode of inhibition.

thrombin [3] = experiment: Extent of thrombin inhibition with varying DNA concentration; format: biochemical
Excerpt: Independent verification of the Ki for the nonmodified 15-mer was made by determining the extent of thrombin inhibition with varying DNA concentration.

Row | Substance | Ki (thrombin [2]) | further results
1 | 5' GGGGGTT 3' (chemistry not given here) [reference compound] | – | Clotting time (thrombin [1]): 26 s
2 | 5' GGTTGGG 3' (chemistry not given here) | – | Clotting time (thrombin [1]): 38 s
3 | 5' GGTTGGTGTGGTTGG 3' | 20 nM | clotting time of rat plasma (human thrombin; about 0.5 and 5.0 μM in blood, 5 minute time point): prolonged clotting time; activity in clotting-time assay of rat plasma (human thrombin; 20 minutes): Little or no activity; APTT test (rat blood coagulation): inhibited rat blood coagulation; half-life (Half-life in rats): ≤ 5 min; concentration giving 50% inhibition of thrombin activity (thrombin [3]): approximately the same concentration as the derived Ki
4 | G*G*T*T*G*G*T*G*T*G*G*T*T*G*G | 280 nM | –
5 | GG(dU)TGGTGTGG(dU)TGG (DNA GGNTGGTGTGGNTGG) [15-mer thrombin aptamer analog with uracil (dU) in place of thymine] | 80 nM | –
6 | GGTTGG(dU)G(dU)GGTTGG (DNA GGTTGGNGNGGTTGG; dU in place of thymine) [15-mer thrombin aptamer analog with uracil (dU) in place of thymine] | 15 nM | –
7 | GGTTGGTGTGGTT*G*G | 40 nM | –
8 | GGTTGGTGTGGTTGG#G#T (DNA GGTTGGTGTGGTTGGGT; MEA linkages, chemistry not fully specified) [closely related 17-mer thrombin aptamer analog; # indicates a MEA linkage] | 35 nM | –
9 | GGTTGGTGTGGTU'GG (DNA GGTTGGTGTGGTNGG; 5-pentynyluracil, further chemistry not given here) [15-mer thrombin aptamer analog; U' indicates 5-pentynyluracil] | 20 nM | –
